Data reported in patent US9360486B2, “Allergen fragments” (Biomay AG, priority 2007, dated 2016).

Tested on: Amb a 1-specific T cell lines (TCL)
Test: T cell epitope mapping of Amb a 1.3: proliferation (3H-thymidine uptake) of TCL stimulated with synthetic peptides
Type: cell-based, human
Conditions: for No. positive patients SI > 3 / No. positive patients SI > 5 / % (positive patients SI > 3) / % (positive patients SI > 5): TCL from 48 ragweed pollen-allergic patients, peptide 5 μg/ml; for No. positive patients SI > 3 / No. positive patients SI > 5: 3H-thymidine uptake after 48 hrs; for No. positive patients SI > 3 / % (positive patients SI > 3): stimulation index > 3; for No. positive patients SI > 5 / % (positive patients SI > 5): stimulation index > 5; for T cell activating region recognized by % of patients: classes of prevalence referring to SI>5, 48 TCL
Description: The T cell response to Amb a 1 was characterized in detail using the established in vitro culture system (Jahn-Schmid et al., J. Immunol. 169: 6005-11, 2002; Jahn-Schmid et al., J. Allergy Clin. Immunol., 115: 399-404, 2005). In total, 85 clinically well-defined patients (75 from Vienna/10 from Milano) with typical case history, positive skin prick test and CAP/RAST tests for ragweed extract were included.
Peripheral blood mononuclear cells (PBMC) were isolated from heparinized blood of allergic patients by Ficoll density gradient centrifugation. To generate allergen-specific T cell lines (TCL) and T cell clones (TCC), 1.5×10^6 PBMC were stimulated with optimal doses of ragweed or mugwort extract (4 μg/ml) or rAmb a 1.3 (10 μg/ml) in 24-well flat-bottomed culture plates (Costar, USA). After 5 days human rIL-2 (10 U/ml, Boehringer, Mannheim, Germany) were added and cultures were continued for additional 7 days. Then, T cell blasts were isolated by density centrifugation. The majority of T cell blasts was further expanded with IL-2 and irradiated PBMC. A small number of T cell blasts were used to establish monoclonal T cell cultures by limiting dilution: 0.3 T cells/well were seeded into 96 well round bottom plates (Nunclone) in the presence of 2×10^5 irradiated (60 Gy) PBMC, 0.25% v/v PHA (Gibco, USA) and rIL-2 (4 U/well) in the medium mentioned above. After 14-21 days, growing microcultures were expanded at weekly intervals with irradiated PBMC and rIL-2. The specificity of TCC was assessed in proliferation assays using irradiated allogeneic or HLA-matched PBMC or irradiated EBV-transformed allogeneic B-cells and 5 μg/ml Amb a 1.3. After 48 hours, cellular uptake of tritiated (^3H)-thymidine was performed to measure proliferation in counts per minute (cpm). When the stimulation index (SI; ratio between cpm obtained in cultures containing TCC plus autologous APC plus antigen, and cpm obtained in cultures containing TCC and APC alone) was >10, responses were considered as positive. Allergen-specific TCC were expanded by alternating turns of stimulation with autologous irradiated APC and allergen or with allogeneic feeder cells and rIL-2.
Amb a 1-specific TCL and TCC were used to identify T cell epitopes of Amb a 1.3. T cell cultures were stimulated with a panel of 121 synthetic 12-mer peptides and one 13-mer representing the C-terminal peptide of Amb a 1.3 (Pepset, Biotrend, Germany). Peptides had been synthesized according to the Amb a 1.3 amino acid sequence and overlapped for 9 amino acid residues with the neighbouring peptides (Table 1). Peptides were used at a concentration of 5 μg/ml for stimulation and proliferation of T cell cultures was determined after 48 hrs by ^3H-thymidine-uptake. Because of the frequently observed high background caused by auto-reactivity in TCL, the mean of the cpm observed with the ten least stimulating peptides (none of the peptides was toxic) was used as negative control in calculations of SI. Throughout this manuscript, a peptide comprised one T cell epitope when the stimulation index was at least 3.0.
T cell epitope mapping of Amb a 1.3 was performed evaluating 48 TCL from different patients ([…]), which had been initiated with ragweed extract (containing the natural allergen) or rAmb a 1.3 (Table 2). TCL induced with either ragweed extract or rAmb a 1.3 from the same individual recognized similar T cell epitopes (Table 2; FIG. 7). […] Therefore, their data were combined for further analysis (Table 3). Typical for many inhalant allergens, multiple T cell activating regions were detected in Amb a 1.3. The number of peptides recognized by T cells from a single individual ranged from 2 to maximum 60 peptides with a mean of 17.8 peptides (median=16/for SI>3; resp. 0-36/11.9/12 for SI>5) (see Table 3). In total, 26 relevant (i.e. recognized by ≧10% of patients studied) T cell activating regions comprising 12-18 aa were identified. […]

## AAAQNRPLWIIF (Amb a 1 fragment) [Peptide 29]
  No. positive patients SI > 3: 4
  No. positive patients SI > 5: 3
  % (positive patients SI > 3): 8.3%
  % (positive patients SI > 5): 6.3%

## AEPGEAAIKLTS (Amb a 1 fragment) [Peptide 117]
  No. positive patients SI > 3: 4
  No. positive patients SI > 5: 3
  % (positive patients SI > 3): 8.3%
  % (positive patients SI > 5): 6.3%

## AIKLTSSAGVLS (Amb a 1 fragment) [Peptide 119]
  reactivity with T cells isolated from allergic individuals: reactivity with T cells
  No. positive patients SI > 3: 16
  No. positive patients SI > 5: 10
  % (positive patients SI > 3): 33.3%
  % (positive patients SI > 5): 20.8%

## AIKLTSSAGVLSCRP (Amb a 1 fragment) [Peptide 119-120]
  reactivity with T cells isolated from allergic individuals: reactivity with T cells

## AKGTYGGKWGDV (Amb a 1 fragment) [Peptide 18]
  No. positive patients SI > 3: 1
  No. positive patients SI > 5: 0
  % (positive patients SI > 3): 2.1%
  % (positive patients SI > 5): 0.0%

## ALADCAQGFAKG (Amb a 1 fragment) [Peptide 15]
  No. positive patients SI > 3: 4
  No. positive patients SI > 5: 2
  % (positive patients SI > 3): 8.3%
  % (positive patients SI > 5): 4.2%

## AWNWRSDKDLLE (Amb a 1 fragment) [Peptide 105]
  No. positive patients SI > 3: 4
  No. positive patients SI > 5: 3
  % (positive patients SI > 3): 8.3%
  % (positive patients SI > 5): 6.3%

## CKFTQQSKAILL (Amb a 1 fragment) [Peptide 71]
  No. positive patients SI > 3: 4
  No. positive patients SI > 5: 2
  % (positive patients SI > 3): 8.3%
  % (positive patients SI > 5): 4.2%

## CSLSKSFDGLVD (Amb a 1 fragment) [Peptide 63]
  No. positive patients SI > 3: 2
  No. positive patients SI > 5: 2
  % (positive patients SI > 3): 4.2%
  % (positive patients SI > 5): 4.2%

## DCAQGFAKGTYG (Amb a 1 fragment) [Peptide 16]
  No. positive patients SI > 3: 2
  No. positive patients SI > 5: 0
  % (positive patients SI > 3): 4.2%
  % (positive patients SI > 5): 0.0%

## DGPPILRQASDG (Amb a 1 fragment) [Peptide 54]
  No. positive patients SI > 3: 4
  No. positive patients SI > 5: 2
  % (positive patients SI > 3): 8.3%
  % (positive patients SI > 5): 4.2%

## DKCWRGKADWEN (Amb a 1 fragment) [Peptide 10]
  No. positive patients SI > 3: 2
  No. positive patients SI > 5: 2
  % (positive patients SI > 3): 4.2%
  % (positive patients SI > 5): 4.2%

## DKDLLENGAIFV (Amb a 1 fragment) [Peptide 107]
  reactivity with T cells isolated from allergic individuals: reactivity with T cells
  No. positive patients SI > 3: 30
  No. positive patients SI > 5: 27
  % (positive patients SI > 3): 62.5%
  % (positive patients SI > 5): 56.3%

## DKDLLENGAIFVTSG (Amb a 1 fragment) [Peptide 107-108]
  reactivity with T cells isolated from allergic individuals: reactivity with T cells
  T cell activating region recognized by % of patients: recognized by 56.3%

## DKDLLENGAIFVTSGSDPVLTPVQ (Amb a 1 fragment) [Peptide 107-111]
  reactivity with T cells isolated from allergic individuals: reactivity with T cells

## DTHVQDKGMLAT (Amb a 1 fragment) [Peptide 76]
  No. positive patients SI > 3: 4
  No. positive patients SI > 5: 1
  % (positive patients SI > 3): 8.3%
  % (positive patients SI > 5): 2.1%

## DTINVAGSSQIW (Amb a 1 fragment) [Peptide 58]
  No. positive patients SI > 3: 3
  No. positive patients SI > 5: 1
  % (positive patients SI > 3): 6.3%
  % (positive patients SI > 5): 2.1%

## DVANPKEGTLRF (Amb a 1 fragment) [Peptide 25]
  No. positive patients SI > 3: 2
  No. positive patients SI > 5: 0
  % (positive patients SI > 3): 4.2%
  % (positive patients SI > 5): 0.0%

## EAYNIIDKCWRG (Amb a 1 fragment) [Peptide 8]
  No. positive patients SI > 3: 3
  No. positive patients SI > 5: 1
  % (positive patients SI > 3): 6.3%
  % (positive patients SI > 5): 2.1%

## EGTLRFAAAQNR (Amb a 1 fragment) [Peptide 27]
  reactivity with T cells isolated from allergic individuals: reactivity with T cells
  No. positive patients SI > 3: 5
  No. positive patients SI > 5: 5
  % (positive patients SI > 3): 10.4%
  % (positive patients SI > 5): 10.4%

## EGTLRFAAAQNRPLW (Amb a 1 fragment) [Peptide 27-28]
  reactivity with T cells isolated from allergic individuals: reactivity with T cells
  T cell activating region recognized by % of patients: recognized by 22.9%

## EIINGGLTLMNV (Amb a 1 fragment) [Peptide 42]
  reactivity with T cells isolated from allergic individuals: reactivity with T cells
  No. positive patients SI > 3: 11
  No. positive patients SI > 5: 5
  % (positive patients SI > 3): 22.9%
  % (positive patients SI > 5): 10.4%
  T cell activating region recognized by % of patients: recognized by 10.4%

## EILPSVNETRSL (Amb a 1 fragment) [Peptide 3]
  No. positive patients SI > 3: 1
  No. positive patients SI > 5: 0
  % (positive patients SI > 3): 2.1%
  % (positive patients SI > 5): 0.0%

## ESMAWNWRSDKD (Amb a 1 fragment) [Peptide 104]
  No. positive patients SI > 3: 2
  No. positive patients SI > 5: 1
  % (positive patients SI > 3): 4.2%
  % (positive patients SI > 5): 2.1%

## FDGLVDVTLGST (Amb a 1 fragment) [Peptide 65]
  No. positive patients SI > 3: 2
  No. positive patients SI > 5: 1
  % (positive patients SI > 3): 4.2%
  % (positive patients SI > 5): 2.1%

## FGFFQVVNNNYD (Amb a 1 fragment) [Peptide 86]
  T cell reactivity with samples from individuals suffering from ragweed pollen allergy: high T cell reactivity
  reactivity with T cells isolated from allergic individuals: reactivity with T cells
  No. positive patients SI > 3: 12
  No. positive patients SI > 5: 10
  % (positive patients SI > 3): 25.0%
  % (positive patients SI > 5): 20.8%
  T cell activating region recognized by % of patients: recognized by 20.6%

## FLAPDDQIKKNV (Amb a 1 fragment) [Peptide 97]
  reactivity with T cells isolated from allergic individuals: reactivity with T cells
  No. positive patients SI > 3: 6
  No. positive patients SI > 5: 4
  % (positive patients SI > 3): 12.5%
  % (positive patients SI > 5): 8.3%

## FQVVNNNYDRWG (Amb a 1 fragment) [Peptide 87]
  reactivity with T cells isolated from allergic individuals: reactivity with T cells
  No. positive patients SI > 3: 5
  No. positive patients SI > 5: 2
  % (positive patients SI > 3): 10.4%
  % (positive patients SI > 5): 4.2%

## GAAESMAWNWRS (Amb a 1 fragment) [Peptide 103]
  No. positive patients SI > 3: 2
  No. positive patients SI > 5: 1
  % (positive patients SI > 3): 4.2%
  % (positive patients SI > 5): 2.1%

## GADDTHVQDKGM (Amb a 1 fragment) [Peptide 75]
  No. positive patients SI > 3: 1
  No. positive patients SI > 5: 1
  % (positive patients SI > 3): 2.1%
  % (positive patients SI > 5): 2.1%

## GDVYTVTSNLDD (Amb a 1 fragment) [Peptide 21]
  No. positive patients SI > 3: 2
  No. positive patients SI > 5: 1
  % (positive patients SI > 3): 4.2%
  % (positive patients SI > 5): 2.1%

## GEAAIKLTSSAG (Amb a 1 fragment) [Peptide 118]
  reactivity with T cells isolated from allergic individuals: reactivity with T cells
  No. positive patients SI > 3: 10
  No. positive patients SI > 5: 8
  % (positive patients SI > 3): 20.8%
  % (positive patients SI > 5): 16.7%
